Measured values taken from PubChem BioAssay AID330 (DTP/NCI, 2004).
Where “and” joins values, the source holds several entries; their conditions need not be identical. Equal values may be shown once. Inconclusive results and toxic doses are left out. The calls were made as follows: active = survival T/C of 150% or more; inactive = T/C below 125% in these data.

Test system: P388 leukemia ip, CD2F1 mice, survival T/C
Experiment: NCI In Vivo Anticancer Drug Screen. Data for tumor model P388 Leukemia (intraperitoneal) in CD2F1 (CDF1) mice
Conditions: endpoint: median survival time, higher = longer survival
Procedure, shortened: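 Mice carrying the transplanted tumor received test compound or vehicle. Survival was recorded in each group, and the value is the treated-group measurement divided by that of the vehicle-treated control group.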

[1] = dose: 50.0 mg/kg/injection, schedule: Q01DX009 (ip), vehicle: Klucel (hydroxypropylcellulose) (HPC)
[2] = dose: 100.0 mg/kg/injection, schedule: Q01DX009 (ip), vehicle: Klucel (hydroxypropylcellulose) (HPC)
[3] = dose: 200.0 mg/kg/injection, schedule: Q01DX009 (ip), vehicle: Klucel (hydroxypropylcellulose) (HPC)
[4] = dose: 100.0 mg/kg/injection, schedule: Q01DX001 (ip), vehicle: Klucel (hydroxypropylcellulose) (HPC)
[5] = dose: 200.0 mg/kg/injection, schedule: Q01DX001 (ip), vehicle: Klucel (hydroxypropylcellulose) (HPC)
[6] = dose: 400.0 mg/kg/injection, schedule: Q01DX001 (ip), vehicle: Klucel (hydroxypropylcellulose) (HPC)
[7] = dose: 6.25 mg/kg/injection, schedule: Q01DX009 (ip), vehicle: saline
[8] = dose: 12.5 mg/kg/injection, schedule: Q01DX009 (ip), vehicle: saline
[9] = dose: 50.0 mg/kg/injection, schedule: Q01DX009 (ip), vehicle: suspension in saline
[10] = dose: 200.0 mg/kg/injection, schedule: Q01DX009 (ip), vehicle: suspension in saline
[11] = dose: 50.0 mg/kg/injection, schedule: Q01DX005 (ip), vehicle: saline with Tween-80
[12] = dose: 100.0 mg/kg/injection, schedule: Q01DX005 (ip), vehicle: saline with Tween-80
[13] = dose: 200.0 mg/kg/injection, schedule: Q01DX005 (ip), vehicle: saline with Tween-80
[14] = dose: 50.0 mg/kg/injection, schedule: Q01DX009 (ip), vehicle: saline
[15] = dose: 100.0 mg/kg/injection, schedule: Q01DX009 (ip), vehicle: suspension in saline
[16] = dose: 100.0 mg/kg/injection, schedule: Q01DX009 (ip), vehicle: saline

Measured: T/C

CC(C)=CCC(OC(=O)C=C(C)C)C1=CC(=O)c2c(O)ccc(O)c2C1=O (centres undefined)
inactive: dose: 1.56 mg/kg/injection, schedule: Q01DX009 (ip), vehicle: water 108 % of control | dose: 3.12 mg/kg/injection, schedule: Q01DX009 (ip), vehicle: water 107 % of control | dose: 6.25 mg/kg/injection, schedule: Q01DX009 (ip), vehicle: water 117 % of control | dose: 10.0 mg/kg/injection, schedule: Q01DX009 (ip), vehicle: saline with Tween-80 110 % of control | dose: 10.0 mg/kg/injection, schedule: Q04DX003 (ip), vehicle: saline with Tween-80 109 % of control | dose: 12.5 mg/kg/injection, schedule: Q01DX009 (ip), vehicle: water 119 % of control | dose: 20.0 mg/kg/injection, schedule: Q01DX009 (ip), vehicle: saline with Tween-80 110 % of control | dose: 20.0 mg/kg/injection, schedule: Q04DX003 (ip), vehicle: saline with Tween-80 90 % of control | dose: 40.0 mg/kg/injection, schedule: Q04DX003 (ip), vehicle: saline with Tween-80 104 % of control

O=S1(=O)CCN(C2CCS(=O)(=O)C2)CC1 (centres undefined)
inactive: [1] 90 % of control | [2] 99 % of control | [3] 90 % of control

O=c1[nH]c2ccccc2n1C1CCN(CCOc2ccccc2)CC1
inactive: [1] 95 % of control | [2] 102 % of control | [3] 95 % of control

COC(=O)C1CCC(c2ccccc2)(c2ccccc2)C1=O.COC(=O)C1CCC(c2ccccc2)(c2ccccc2)C1=O.[Cu] (centres undefined)
inactive: [4] 100 % of control | [5] 100 % of control | [6] 102 % of control

N#Cc1ccccc1S(=O)(=O)O
inactive: dose: 100.0 mg/kg/injection, schedule: Q01DX001 (ip), vehicle: saline with Tween-80 96 % of control | dose: 200.0 mg/kg/injection, schedule: Q01DX001 (ip), vehicle: saline with Tween-80 90 % of control | dose: 400.0 mg/kg/injection, schedule: Q01DX001 (ip), vehicle: saline with Tween-80 102 % of control

Cc1csc(=NCc2cccnc2)n1C
inactive: [7] 100 % of control | [8] 107 % of control

Cc1ccccc1C1OC(N)=C(O)C1=O (centres undefined)
inactive: dose: 60.0 mg/kg/injection, schedule: Q01DX005 (ip), vehicle: Klucel (hydroxypropylcellulose) (HPC) 93 % of control | dose: 120.0 mg/kg/injection, schedule: Q01DX005 (ip), vehicle: Klucel (hydroxypropylcellulose) (HPC) 93 % of control | dose: 240.0 mg/kg/injection, schedule: Q01DX005 (ip), vehicle: Klucel (hydroxypropylcellulose) (HPC) 90 % of control

c1ccc(-c2nn(-c3ccccc3)[n+](-c3ccccc3)n2)cc1
inactive: dose: 1.25 mg/kg/injection, schedule: Q01DX009 (ip), vehicle: saline with Tween-80 100 % of control | dose: 2.5 mg/kg/injection, schedule: Q01DX009 (ip), vehicle: saline with Tween-80 90 % of control

O=C(N1CCC2(CC1)SSC1(CCN(C(=O)C(F)(F)F)CC1)S2)C(F)(F)F
inactive: dose: 100.0 mg/kg/injection, schedule: Q04DX003 (ip), vehicle: saline with Tween-80 87 % of control | dose: 200.0 mg/kg/injection, schedule: Q04DX003 (ip), vehicle: saline with Tween-80 91 % of control

O=[N+]([O-])c1ccc(CS(=O)(=O)C(Cl)(Cl)Cl)o1
inactive: [7] 108 % of control and 112 % of control and 87 % of control | [9] 86 % of control | [10] 86 % of control

CC(C)Oc1nc(N2CCNCC2)nc2c1CCCC2
inactive: dose: 15.0 mg/kg/injection, schedule: Q01DX005 (ip), vehicle: saline 101 % of control | dose: 30.0 mg/kg/injection, schedule: Q01DX005 (ip), vehicle: saline 104 % of control | dose: 60.0 mg/kg/injection, schedule: Q01DX005 (ip), vehicle: saline 111 % of control and 90 % of control

CC1(O)CC[N+](C)(C)CC1c1ccccc1 (centres undefined)
inactive: dose: 50.0 mg/kg/injection, schedule: Q04DX003 (ip), vehicle: saline 118 % of control | dose: 100.0 mg/kg/injection, schedule: Q04DX003 (ip), vehicle: saline 113 % of control

O=Cc1c(Br)n(-c2ccccc2)c2ccccc12
inactive: [4] 102 % of control | [5] 100 % of control | [6] 100 % of control

COc1ccc(C2=NN(c3ccccc3)C(=O)/C2=C(/SC)N2CC2)cc1
inactive: dose: 100.0 mg/kg/injection, schedule: Q04DX003 (ip), vehicle: Klucel (hydroxypropylcellulose) (HPC) 99 % of control | dose: 200.0 mg/kg/injection, schedule: Q04DX003 (ip), vehicle: Klucel (hydroxypropylcellulose) (HPC) 91 % of control | dose: 400.0 mg/kg/injection, schedule: Q04DX003 (ip), vehicle: Klucel (hydroxypropylcellulose) (HPC) 102 % of control

C/C(N=NC(=S)N1CCCC1)=C1\C=CC=CN1O
inactive: [11] 106 % of control | [12] 103 % of control | [13] 112 % of control

O=c1[nH]c2c(ccc3cnccc32)c2c1CCC2
inactive: [8] 122 % of control | [14] 94 % of control

O=C(O)CC1CC(O)CC/C1=N\Nc1ccc([N+](=O)[O-])cc1[N+](=O)[O-] (centres undefined)
inactive: [11] 102 % of control | [12] 98 % of control | [13] 91 % of control

C[C@@]12CCCC[C@@H]1N(CCN1CCCCC1)c1ccccc12
inactive: dose: 60.0 mg/kg/injection, schedule: Q01DX005 (ip), vehicle: saline with Tween-80 95 % of control | dose: 120.0 mg/kg/injection, schedule: Q01DX005 (ip), vehicle: saline with Tween-80 105 % of control | dose: 240.0 mg/kg/injection, schedule: Q01DX005 (ip), vehicle: saline with Tween-80 98 % of control

N#CC(c1ccccc1)C1NC(C(=O)O)CS1 (centres undefined)
inactive: [9] 106 % of control | [15] 93 % of control | [10] 93 % of control

CCN(CC)Cc1c(C)[nH]c2c3c(ccc2c1=O)Oc1c(ccc2c(=O)c(CN(CC)CC)c(C)[nH]c12)O3
inactive: [1] 96 % of control | [2] 93 % of control | [3] 96 % of control

C=C(C)C1CCC2(CO)C(O)CC3(C)C(CCC4C5(C)CCC(O)C(C)(C)C5CCC43C)C12 (centres undefined)
inactive: dose: 15.0 mg/kg/injection, schedule: Q01DX009 (ip), vehicle: Klucel (hydroxypropylcellulose) (HPC) 93 % of control | dose: 30.0 mg/kg/injection, schedule: Q01DX009 (ip), vehicle: Klucel (hydroxypropylcellulose) (HPC) 94 % of control | dose: 60.0 mg/kg/injection, schedule: Q01DX009 (ip), vehicle: Klucel (hydroxypropylcellulose) (HPC) 86 % of control | dose: 120.0 mg/kg/injection, schedule: Q01DX009 (ip), vehicle: Klucel (hydroxypropylcellulose) (HPC) 92 % of control

COC1C(CO)OC(Oc2ccc(C(=C3CCCCC3)c3ccc(O)cc3)cc2)C(O)C1O (centres undefined)
inactive: [14] 95 % of control | [16] 95 % of control | dose: 200.0 mg/kg/injection, schedule: Q01DX009 (ip), vehicle: saline 94 % of control

Cc1ccc(S(=O)(=O)/N=C\[N-][n+]2ccccc2C)cc1
inactive: [1] 101 % of control | [2] 93 % of control | [3] 92 % of control

O=C(Nc1ccc(Cl)c(Cl)c1)Sc1ccc(Cl)cc1
inactive: [11] 113 % of control | [12] 119 % of control | [13] 112 % of control

CNC(=O)OC/C=C/c1ccccc1
inactive: dose: 50.0 mg/kg/injection, schedule: Q01DX009 (ip), vehicle: saline with Tween-80 99 % of control | dose: 100.0 mg/kg/injection, schedule: Q01DX009 (ip), vehicle: saline with Tween-80 99 % of control | dose: 200.0 mg/kg/injection, schedule: Q01DX009 (ip), vehicle: saline with Tween-80 92 % of control

Cc1ncc(S(=O)(=O)Cc2ccc3c(c2)OCO3)c(N)n1
inactive: dose: 100.0 mg/kg/injection, schedule: Q01DX001 (ip), vehicle: saline 96 % of control | dose: 200.0 mg/kg/injection, schedule: Q01DX001 (ip), vehicle: saline 95 % of control | dose: 400.0 mg/kg/injection, schedule: Q01DX001 (ip), vehicle: saline 95 % of control

O=[N+]([O-])c1ccc(/C=C(/c2ccc([N+](=O)[O-])o2)S(=O)(=O)C(Cl)(Cl)Cl)cc1
inactive: dose: 25.0 mg/kg/injection, schedule: Q01DX009 (ip), vehicle: saline 100 % of control | [14] 89 % of control | [16] 91 % of control | [15] 86 % of control
